Laboratory results from US20100008938A1, “SELF ASSEMBLING AMPHIPHILIC POLYMERS AS ANTIVIRAL AGENTS” (priority 2007, published 2010).

Legend:
[1] = Solubilization of dyes in aqueous polymer solution vs water, TLC spot comparison; conditions: for concentration in 50 mg/ml polymer: 50 mg/ml aqueous C16-Polymer A (Example 1), approximate, from TLC spot intensity
[2] = system: ATCC VR-1520 (H2N1) Human influenza virus

## O=C1OC2(c3cc(Cl)c(O)cc3Oc3cc(O)c(Cl)cc32)c2ccccc21 [Dichlorofluorescein, dichlorofluorescein]
[1]
  concentration in 50 mg/ml polymer: approximately 5 mg/ml
[1]; deionized water (unbuffered), water, thermodynamic from solid
  solubility: ≥ 10 µg/mL

## Cc1ccccc1/N=N/c1ccc(/N=N/c2c(O)ccc3ccccc23)c(C)c1 [Sudan IV]
[1]
  concentration in 50 mg/ml polymer: approximately 0.2 mg/ml
[1]; deionized water, unbuffered, room temperature
  concentration in H2O: 0 ng/mL

## COC1(C(=O)O)CC(O)C(N)C(C(O)C(O)CO)O1 (stereo not drawn) [positive control, neuraminic acid β-methyl glycoside]
[2]; 7 days
  body weight loss: −9.8%
[2]; mouse, in vivo
  increase in survival time: 2.94 h
